From ChEMBL document CHEMBL1201862, “PubChem BioAssay data set” (2004)
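Briefly, cells in 96-well plates were exposed to five compound concentrations for 48 h, and endpoints were estimated by linear interpolation. GI50: concentration for 50% inhibition of growth.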 Calls of active or inactive are those of the source. Rule as the data show it: active = GI50 up to about 1.1 µM and inactive = higher.

Assays:
Assay in all cases: growth of human tumour cells (NCI), 48 h
NCI-H460 = system: NCI-H460
SK-MEL-5 = system: SK-MEL-5
SF-295 = system: SF-295
A549 = system: A549
MOLT-4 = system: MOLT-4
HOP-62 = system: HOP-62
MDA-N = system: MDA-N
BT-549 = system: BT-549
UACC-62 = system: UACC-62
UACC-257 = system: UACC-257
SF-268 = system: SF-268
HL-60 = system: HL-60
NCI-H23 = system: NCI-H23
LOX IMVI = system: LOX IMVI
CCRF-CEM = system: CCRF-CEM
Malme-3M = system: Malme-3M
COLO 205 = system: COLO 205
NCI-H226 = system: NCI-H226
HT-29 = system: HT-29
MCF7 = system: MCF7
SNB-75 = system: SNB-75
U-251 = system: U-251
OVCAR-3 = system: OVCAR-3
ACHN = system: ACHN
SNB-19 = system: SNB-19
TK-10 = system: TK-10
DU-145 = system: DU-145
MDA-MB-231 = system: MDA-MB-231
SR = system: SR
UO-31 = system: UO-31
M14 = system: M14
MDA-MB-435 = system: MDA-MB-435
SW-620 = system: SW-620
HOP-92 = system: HOP-92
NCI-H522 = system: NCI-H522
RXF 393 = system: RXF 393
A498 = system: A498
HCT-116 = system: HCT-116
K562 = system: K562
HCT-15 = system: HCT-15
SK-OV-3 = system: SK-OV-3
IGROV-1 = system: IGROV-1
CAKI-1 = system: CAKI-1
OVCAR-5 = system: OVCAR-5
SK-MEL-2 = system: SK-MEL-2
RPMI-8226 = system: RPMI-8226
KM12 = system: KM12
HCC 2998 = system: HCC 2998
T47D = system: T47D
EKVX = system: EKVX
Hs-578T = system: Hs-578T
SK-MEL-28 = system: SK-MEL-28
PC-3 = system: PC-3
OVCAR-8 = system: OVCAR-8
786-0 = system: 786-0
SN12C = system: SN12C
OVCAR-4 = system: OVCAR-4
NCI/ADR-RES = system: NCI/ADR-RES
SF-539 = system: SF-539

Measured: GI50

CC(O)CC(=O)CO[C@H]1[C@H](O)[C@@H](O)[C@@H](O)[C@@H]2NC(=O)c3c(cc4c(c3O)OCO4)[C@H]21 (some centres undefined)
inactive: NCI/ADR-RES 1290 nM
active: NCI-H460 27.5 nM | SK-MEL-5 13.7 nM | SF-295 29.9 nM | A549 42 nM | MOLT-4 31.3 nM | HOP-62 28.9 nM | MDA-N 36.6 nM | BT-549 50.9 nM | UACC-62 54.1 nM | UACC-257 39.7 nM | SF-268 22.2 nM | HL-60 38.6 nM | NCI-H23 33.5 nM | LOX IMVI 20.8 nM | CCRF-CEM 18.4 nM | Malme-3M 11.8 nM | COLO 205 33.2 nM | NCI-H226 49.9 nM | HT-29 25.8 nM | MCF7 19.4 nM | SNB-75 47.2 nM | U-251 < 15 nM | OVCAR-3 45.7 nM | ACHN 39.1 nM | SNB-19 < 15.6 nM | TK-10 35.3 nM | DU-145 21.4 nM | MDA-MB-231 54 nM | SR 33.5 nM | UO-31 115 nM | M14 36.1 nM | MDA-MB-435 38.6 nM | SW-620 109 nM | HOP-92 37.7 nM | NCI-H522 24.2 nM | RXF 393 20.8 nM | A498 21.8 nM | HCT-116 26.4 nM | K562 39.2 nM | SK-OV-3 61.7 nM | IGROV-1 < 20.7 nM | CAKI-1 512 nM | OVCAR-5 71.1 nM | SK-MEL-2 36.3 nM | RPMI-8226 22.6 nM | KM12 31.6 nM | HCC 2998 18.1 nM | T47D 22.2 nM | EKVX 26.6 nM | Hs-578T 39.8 nM | SK-MEL-28 < 20.1 nM | PC-3 27.2 nM | OVCAR-8 33.2 nM | 786-0 43.9 nM | SN12C 26.6 nM | OVCAR-4 48.3 nM | SF-539 21.4 nM
256 nM: HCT-15
